Assay [1] relates to dihydrofolate reductase (DHFR). The conditions noted are these: bacterial vs mammalian DHFR; competes with substrate dihydrofolate; cited from earlier work.
For another assay, the target named is T1, E. coli PPAT (Escherichia coli, UniProt P0A6I6).
T1 construct: made in house; host or cells: E. coli (plasmid pUC/PPAT, pUC19 backbone)
As to the kind of experiment: Assay for inhibitors of E. coli PPAT (pyrophosphate-dependent cleavage of dephosphocoenzyme A, coupled spectrophotometric assay at 340 nm). The conditions noted are these: test compound at 0.05 mM, 25° C., compared with control without inhibitor. It counts as biochemical. The method, then:
The activity of the PPAT enzyme was assayed by monitoring the pyrophosphate dependent cleavage of dephosphocoenzyme A which produced ATP and phosphopantetheine. The reaction contains in a final volume of 1 ml: 50 mM Tris-HCl containing 2 mM tetrasodium pyrophosphate, pH 8.0; 1 mM dithiothreitol; 1 mM NADP; 2 mM MgCl2; 5 mM glucose; 9 μg yeast hexokinase; and 7 μg yeast glucose 6-phosphate dehydrogenase. Reactions were monitored spectrophotometrically at 25° C. by following the increase in absorbance at 340 nm.
Inhibition studies were carried out using the reaction conditions described above. Test compounds were added to a final concentration of 0.05 mM, and the percentage inhibition determined by comparison with a control in which no test inhibitor is present.

T1 sequence (P0A6I6 whole entry): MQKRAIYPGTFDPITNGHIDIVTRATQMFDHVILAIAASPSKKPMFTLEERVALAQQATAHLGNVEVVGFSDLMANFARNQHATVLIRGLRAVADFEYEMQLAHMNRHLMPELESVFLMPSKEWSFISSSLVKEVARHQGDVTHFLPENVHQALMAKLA

Consider `COc1cc(Cc2cnc(N)nc2N)cc(OC)c1OC` [trimethoprim], for which the “bound more tightly by bacterial than mammalian forms of DHFR” value in assay [1] was 50,000 fold.

Consider `O=C1CC(=O)c2ccc3c4c(ccc1c24)C(=O)CC3=O` [1,2,3,6,7,8-hexahydropyrene-1,3,6,8-tetraone], for which the inhibition (commonly the relative decrease from the control value, in per cent) at 50 µM at E. coli PPAT is about 60%.

The record behind these values is patent US6696268B1, “Production and use of antimicrobial agents” (Pantherix, Ltd., priority 1998, dated 2004).
